# In patent publication US20060063759A1, “Tricyclic steroid hormone nuclear receptor modulators” (priority 2002, published 2006):
# Experiments:
# human MR = molecular target: T1, human MR (Homo sapiens, UniProt P08235); assay: Mineralocorticoid Receptor Binding Assay ([3H]-aldosterone); conditions: [3H]-aldosterone binding, human MR expressed in Sf9 cells; read-out: MR Ki
# T1 construct: The full length human MR gene is cloned from a human kidney or human brain cDNA library; His tag from the pAcHLT vector (own knowledge); made in house; host or cells: Sf9 insect cells (baculovirus, pAcHLT transfer vector)
# T1 sequence (P08235 1-984): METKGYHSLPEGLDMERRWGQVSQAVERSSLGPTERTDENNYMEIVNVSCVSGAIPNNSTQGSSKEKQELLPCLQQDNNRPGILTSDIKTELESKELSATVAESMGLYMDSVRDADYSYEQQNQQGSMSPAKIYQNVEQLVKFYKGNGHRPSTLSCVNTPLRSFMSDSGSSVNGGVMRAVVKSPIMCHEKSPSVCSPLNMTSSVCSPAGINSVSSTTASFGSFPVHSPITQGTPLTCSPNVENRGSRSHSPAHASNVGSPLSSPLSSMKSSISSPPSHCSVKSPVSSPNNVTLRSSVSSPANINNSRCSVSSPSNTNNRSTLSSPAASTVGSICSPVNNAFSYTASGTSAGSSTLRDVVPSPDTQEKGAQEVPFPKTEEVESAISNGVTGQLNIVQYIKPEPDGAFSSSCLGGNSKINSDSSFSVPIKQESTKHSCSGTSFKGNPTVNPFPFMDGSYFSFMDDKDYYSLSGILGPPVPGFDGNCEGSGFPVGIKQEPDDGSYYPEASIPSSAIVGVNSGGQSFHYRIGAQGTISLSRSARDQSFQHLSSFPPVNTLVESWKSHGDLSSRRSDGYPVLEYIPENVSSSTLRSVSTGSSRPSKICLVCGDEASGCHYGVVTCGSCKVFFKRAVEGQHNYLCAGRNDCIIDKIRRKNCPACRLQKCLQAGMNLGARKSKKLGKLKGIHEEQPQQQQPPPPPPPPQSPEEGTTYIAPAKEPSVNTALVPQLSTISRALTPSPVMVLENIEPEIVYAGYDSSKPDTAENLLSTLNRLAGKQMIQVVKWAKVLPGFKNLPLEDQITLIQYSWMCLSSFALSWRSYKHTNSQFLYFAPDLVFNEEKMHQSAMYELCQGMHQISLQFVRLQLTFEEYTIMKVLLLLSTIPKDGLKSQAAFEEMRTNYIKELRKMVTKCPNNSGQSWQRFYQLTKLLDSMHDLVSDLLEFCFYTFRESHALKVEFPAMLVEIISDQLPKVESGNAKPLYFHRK
# In short: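 Receptor source: freeze-thaw lysate of baculovirus-infected Sf9 cells carrying full-length human MR, 20-25 μg protein. Incubation ~16 h at 4 °C with shaking, pH 7.5 buffer containing 30 mM sodium molybdate and 10% glycerol.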
# glucocorticoid receptor = molecular target: T2, glucocorticoid receptor (Homo sapiens, UniProt P04150); assay: Glucocorticoid Receptor Binding Assay ([3H]-dexamethasone, A549 cell extract); conditions: [3H]-dexamethasone binding, read-out: GR Ki
# T2 construct: containing 50-200 ug of A549 cell extract and 1.86 nM [^3H]-dexamethasone; host or cells: A549 human lung epithelial cells (sonicated cell extract)
# T2 sequence (P04150 1-777): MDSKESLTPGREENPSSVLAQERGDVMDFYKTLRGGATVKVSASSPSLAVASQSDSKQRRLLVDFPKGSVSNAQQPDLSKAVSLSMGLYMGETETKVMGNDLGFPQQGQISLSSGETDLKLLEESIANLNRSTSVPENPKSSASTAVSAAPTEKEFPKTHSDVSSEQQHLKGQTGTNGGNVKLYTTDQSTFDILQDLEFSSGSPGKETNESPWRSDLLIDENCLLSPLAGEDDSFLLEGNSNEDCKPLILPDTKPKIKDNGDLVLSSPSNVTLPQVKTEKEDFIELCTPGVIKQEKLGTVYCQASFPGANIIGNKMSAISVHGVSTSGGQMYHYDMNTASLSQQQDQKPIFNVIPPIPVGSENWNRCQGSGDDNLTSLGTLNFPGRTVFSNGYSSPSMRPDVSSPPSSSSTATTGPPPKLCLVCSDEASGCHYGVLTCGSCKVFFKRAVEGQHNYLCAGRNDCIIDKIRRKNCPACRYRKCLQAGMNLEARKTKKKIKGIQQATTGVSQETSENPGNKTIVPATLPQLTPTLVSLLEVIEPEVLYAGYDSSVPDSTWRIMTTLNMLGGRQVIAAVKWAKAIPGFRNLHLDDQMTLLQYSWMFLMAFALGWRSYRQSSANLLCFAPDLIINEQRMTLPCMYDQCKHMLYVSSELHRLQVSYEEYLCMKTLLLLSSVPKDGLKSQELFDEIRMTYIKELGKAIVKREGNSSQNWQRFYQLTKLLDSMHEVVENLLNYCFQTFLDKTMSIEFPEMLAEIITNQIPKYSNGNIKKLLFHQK
# Description: All ligands, radioligands, solvents, and reagents employed in the binding assays are readily available from commercial sources, or can be readily synthesized by the ordinarily skilled artisan.
# A549 human lung epithelial cells (ATCC) are grown at a scale where gram quantity cell pellets are obtained. Harvested cell pellets are washed twice in cold phosphate buffered saline, centrifuged, and resuspended in cold assay binding buffer. The assay binding buffer consists of 10% glycerol, 50 mM Tris-HCl (pH7.2), 75 mM sodium chloride, 1.5 mM magnesium chloride, 1.5 mM EDTA, and 10 mM sodium molybdate. Cell suspensions were lysed via sonication, centrifuged, and the “extract” supernatant is snap frozen and stored at −80 C until needed.
# GR binding assays are performed in a final volume of 140 ul containing 50-200 ug of A549 cell extract and 1.86 nM [^3H]-dexamethasone (Amersham) plus varying concentrations of test compound or vehicle. Briefly, assays are prepared at RT in 96-well Fisher 3356 plates, each well containing 100 ul of A549 cell extract, 20 ul of [^3H]-dexamethasone, and 20 ul of test compound/vehicle. Incubations are carried out at 4 degrees Celsius for 16 hours. After incubation, 70 ul of 3× dextran-coated charcoal solution is added to each reaction, mixed, and incubated for 8 minutes at RT. 3×-dextran-coated charcoal solution consists of 250 ml assay binding buffer, 3.75 g Norit A charcoal (Sigma), and 1.25 g dextran T-70 (Amersham). Charcoal/unbound radioligand complexes are removed by centrifugation of the plate and 140 ul of supernatant from each well is transferred to another 96 well Optiplate (Packard Instruments). 200 ul of Microscint-20 scinillant (Packard Instruments) is added to each well and amount of receptor bound radioligand is determined using Packard Instruments TopCount instrument.
SMILES,Ki (human MR) [nM],Ki (glucocorticoid receptor) [nM]
"Oc1cccc(C=C2c3ccccc3CCc3c2ccc(Cl)c3Cl)c1 [198(a), 3-(1,2-Dichloro-10,11-dihydro-dibenzo[a,d]cyclohepten-5-ylidenemethyl)-phenol]",< 500,< 500
"Oc1cccc(C=C2c3ccccc3CCc3c2ccc(Cl)c3Cl)c1 [198(b), 3-(1,2-Dichloro-10,11-dihydro-dibenzo[a,d]cyclohepten-5-ylidenemethyl)-phenol]",< 500,< 1000
"CS(=O)(=O)Nc1cccc(C=C2c3ccccc3CCc3cc(F)ccc32)c1 [199(a), N-[3-(2-Fluoro-10,11-dihydro-dibenzo[a,d]cyclohepten-5-ylidenemethyl)-phenyl]-methanesulfonamide]",< 500,< 500
"Oc1cccc(C=C2c3ccccc3CCc3cc(F)ccc32)c1 [200(a), 3-(2-Fluoro-10,11-dihydro-dibenzo[a,d]cyclohepten-5-ylidenemethyl)-phenol]",< 500,< 500
"CS(=O)(=O)Nc1cccc(C=C2c3ccccc3CCc3cc(Cl)ccc32)c1 [206(b), N-[3-(2-Chloro-10,11-dihydro-dibenzo[a,d]cyclohepten-5-ylidenemethyl)-phenyl]-methanesulfonamide]",< 500,< 500
"Oc1cccc(C=C2c3ccccc3CCc3c(Cl)cccc32)c1 [211(a), 3-(1-Chloro-10,11-dihydro-dibenzo[a,d]cyclohepten-5-ylidenemethyl)-phenol]",< 500,< 500
"Oc1cccc(C=C2c3ccccc3CCc3c(Cl)cccc32)c1 [211(b), 3-(1-Chloro-10,11-dihydro-dibenzo[a,d]cyclohepten-5-ylidenemethyl)-phenol]",< 500,< 1000
"Cc1nc2c(s1)/C(=C/c1cccc(NS(C)(=O)=O)c1)c1ccccc1CC2 [483(a), N-[3-(2-Methyl-9,10-dihydro-3-thia-1-aza-benzo[f]azulen-4-ylidenemethyl)-phenyl]-methanesulfonamide]",< 500,< 500
"Cc1nc2c(s1)/C(=C\c1cccc(NS(C)(=O)=O)c1)c1ccccc1CC2 [483(b), N-[3-(2-Methyl-9,10-dihydro-3-thia-1-aza-benzo[f]azulen-4-ylidenemethyl)-phenyl]-methanesulfonamide]",< 500,< 500
"CS(=O)(=O)Nc1cccc(/C=C2\c3ccccc3CCc3scnc32)c1 [484(a), N-[3-(9,10-Dihydro-1-thia-3-aza-benzo[f]azulen-4-ylidenemethyl)-phenyl]-methanesulfonamide]",< 1000,< 500
"CS(=O)(=O)Nc1cccc(/C=C2/c3ccccc3CCc3scnc32)c1 [484(b), N-[3-(9,10-Dihydro-1-thia-3-aza-benzo[f]azulen-4-ylidenemethyl)-phenyl]-methanesulfonamide]",< 500,< 500
"NS(=O)(=O)c1ccccc1C=C1c2ccccc2CCc2ccccc21 [Example 3, 2-(10,11-Dihydro-dibenzo[a,d]cyclohepten-5-ylidenemethyl)-benzenesulfonamide]",< 1000,< 1000
"CN(C)S(=O)(=O)c1ccccc1C=C1c2ccccc2CCc2ccccc21 [Example 5, 2-(10,11-Dihydro-dibenzo[a,d]cyclohepten-5-ylidenemethyl)-N,N-dimethyl-benzenesulfonamide]",< 500,< 500
"COc1ccc(N)cc1C=C1c2ccccc2CCc2ccccc21 [Example 41, 3-(10,11-Dihydro-dibenzo[a,d]cyclohepten-5-ylidenemethyl)-4-methoxy-phenylamine]",< 1000,< 10000
"COc1ccc(NS(C)(=O)=O)cc1C=C1c2ccccc2CCc2ccccc21 [Example 42, N-[3-(10,11-Dihydro-dibenzo[a,d]cyclohepten-5-ylidenemethyl)-4-methoxy-phenyl]-methanesulfonamide]",< 500,< 10000
"Cc1ccc(C=C2c3ccccc3CCc3ccccc32)cc1NS(C)(=O)=O [Example 45, N-[5-(10,11-Dihydro-dibenzo[a,d]cyclohepten-5-ylidenemethyl)-2-methyl-phenyl]-methanesulfonamide]",< 500,< 1000
"Cc1ccc(NS(C)(=O)=O)cc1C=C1c2ccccc2CCc2ccccc21 [Example 47, N-[3-(10,11-Dihydro-dibenzo[a,d]cyclohepten-5-ylidenemethyl)-4-methyl-phenyl]-methanesulfonamide]",< 500,< 1000
"Cc1c(C=C2c3ccccc3CCc3ccccc32)cccc1NS(C)(=O)=O [Example 48, N-[3-(10,11-Dihydro-dibenzo[a,d]cyclohepten-5-ylidenemethyl)-2-methyl-phenyl]-methanesulfonamide]",< 500,< 500
"CS(=O)(=O)Nc1cc(C=C2c3ccccc3CCc3ccccc32)ccc1F [Example 49, N-[5-(10,11-Dihydro-dibenzo[a,d]cyclohepten-5-ylidenemethyl)-2-fluoro-phenyl]-methanesulfonamide]",< 500,< 500
"CS(=O)(=O)Nc1cc(F)cc(C=C2c3ccccc3CCc3ccccc32)c1 [Example 50, N-[3-(10,11-Dihydro-dibenzo[a,d]cyclohepten-5-ylidenemethyl)-5-fluoro-phenyl]-methanesulfonamide]",< 500,< 500
"COc1ccc(OC)c(C=C2c3ccccc3CCc3ccccc32)c1 [Example 52, 5-(2,5-Dimethoxy-benzylidene)-10,11-dihydro-5H-dibenzo[a,d]cycloheptene]",< 500,< 10000
"Oc1cc(O)cc(C=C2c3ccccc3CCc3ccccc32)c1 [Example 54, 5-(10,11-Dihydro-dibenzo[a,d]cyclohepten-5-ylidenemethyl)-benzene-1,3-diol]",< 500,< 500
